Patent publication US20260285850A1, “SUBSTITUTED OXAZOLIDINONES AND IMIDAZOLINONES AS HERBICIDES” (FMC CORPORATION, priority 2023, published 2026)

Key:
Format in all cases: in vivo
[1] = system: barnyardgrass (Echinochloa crusgalli); test: Test B flooded paddy test, visual plant response rating 0-100; conditions: 250 g ai/ha, Flood, applied to paddy water, evaluated after 13 days
Summary of the method: (§1)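 In this flooded assay, 2-leaf seedlings received compound through the water layer, kept at 3 cm over the soil. Plants were held 13 days in a greenhouse and then visually compared with control pots.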

[2] = system: ducksalad (Heteranthera limosa); test: as above; conditions: 250 g ai/ha, Flood, applied to paddy water, evaluated after 13 days
Summary of the method: as §1

[3] = system: sedge, umbrella (small-flower umbrella sedge, Cyperus difformis); test: as above; conditions: 250 g ai/ha, Flood, applied to paddy water, evaluated after 13 days
Summary of the method: as §1

rice (Oryza sativa) = test: as above; conditions: 250 g ai/ha, Flood, applied to paddy water, evaluated after 13 days
Summary of the method: as §1

[4] = system: oat, wild (wild oat, Avena fatua); test: Test A postemergence application, visual injury rating 0-100; conditions: 10 days
Summary of the method: (§2)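 Compound in a non-phytotoxic, surfactant-containing solvent is applied either as a directed soil spray before seedlings emerge or onto emerged plants 2-10 cm tall; pots hold a loam-sand blend. Plants grow 10 days under greenhouse conditions and are rated by eye against untreated controls (0 no effect, 100 complete control).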

[5] = system: barnyardgrass (Echinochloa crus-galli); test: as above; conditions: 10 days
Summary of the method: as §2

[6] = system: ragweed (common ragweed, Ambrosia artemisiifolia); test: as above; conditions: 10 days
Summary of the method: as §2

[7] = system: blackgrass (Alopecurus myosuroides); test: as above; conditions: 10 days
Summary of the method: as §2

corn (Zea mays) [8] = test: as above; conditions: 10 days
Summary of the method: as §2

[9] = system: palmer (palmer amaranth, palmer pigweed, Amaranthus palmeri); test: as above; conditions: 10 days
Summary of the method: as §2

soybean (Glycine max) [10] = test: as above; conditions: 10 days
Summary of the method: as §2

[11] = system: ryegrass, Italian (italian ryegrass, Lolium multiflorum); test: as above; conditions: 10 days
Summary of the method: as §2

[12] = system: galium (catchweed bedstraw, Galium aparine); test: as above; conditions: 10 days
Summary of the method: as §2

[13] = system: wheat (Triticum aestivum); test: as above; conditions: 10 days
Summary of the method: as §2

kochia (Bassia scoparia) [14] = test: as above; conditions: 10 days
Summary of the method: as §2

[15] = system: green foxtail (Setaria viridis); test: as above; conditions: 10 days
Summary of the method: as §2

[16] = system: horseweed (Erigeron canadensis); test: as above; conditions: 10 days
Summary of the method: as §2

[17] = system: oat, wild (wild oat, Avena fatua); test: Test A preemergence soil spray, visual injury rating 0-100; conditions: 10 days, 0 = no effect, 100 = complete control
Summary of the method: as §2

[18] = system: barnyardgrass (Echinochloa crus-galli); test: as above; conditions: 10 days, 0 = no effect, 100 = complete control
Summary of the method: as §2

[19] = system: ragweed (common ragweed, Ambrosia artemisiifolia); test: as above; conditions: 10 days, 0 = no effect, 100 = complete control
Summary of the method: as §2

[20] = system: blackgrass (Alopecurus myosuroides); test: as above; conditions: 10 days, 0 = no effect, 100 = complete control
Summary of the method: as §2

corn (Zea mays) [21] = test: as above; conditions: 10 days, 0 = no effect, 100 = complete control
Summary of the method: as §2

[22] = system: palmer (palmer amaranth, palmer pigweed, Amaranthus palmeri); test: as above; conditions: 10 days, 0 = no effect, 100 = complete control
Summary of the method: as §2

soybean (Glycine max) [23] = test: as above; conditions: 10 days, 0 = no effect, 100 = complete control
Summary of the method: as §2

[24] = system: ryegrass, Italian (italian ryegrass, Lolium multiflorum); test: as above; conditions: 10 days, 0 = no effect, 100 = complete control
Summary of the method: as §2

[25] = system: wheat (Triticum aestivum); test: as above; conditions: 10 days, 0 = no effect, 100 = complete control
Summary of the method: as §2

kochia (Bassia scoparia) [26] = test: as above; conditions: 10 days, 0 = no effect, 100 = complete control
Summary of the method: as §2

[27] = system: green foxtail (Setaria viridis); test: as above; conditions: 10 days, 0 = no effect, 100 = complete control
Summary of the method: as §2

[28] = 31 g ai/ha, postemergence, 0 = no effect, 100 = complete control
[29] = Postemergence, 125 g ai/ha, 0 is no effect, 100 is complete control

For `CC1(C(=O)NC2C=CC(C(=O)OCC(F)(F)F)C2)CN(c2cc(F)cc(F)c2)C(=O)O1` (stereo not shown) [Compound 55], the “Plant response rating, Barnyardgrass (0 to 100 scale, 0 is no effect and 100 is complete control)” value [1] was 90, the “Plant response rating, Ducksalad (0 to 100 scale, 0 is no effect and 100 is complete control)” value [2] was 85 and the “Plant response rating, Sedge, Umbrella (0 to 100 scale, 0 is no effect and 100 is complete control)” value [3] was 45. For the same compound, the “Plant response rating, Rice (0 to 100 scale, 0 is no effect and 100 is complete control)” value (rice (Oryza sativa)) was 15, the “Oat, Wild plant response rating (0-100)” value [4, 28] was 90 and the “Oat, Wild plant response rating (0 to 100 scale)” value [4, 29] was 90. The “Barnyardgrass plant response rating (0-100)” value [5, 28] was 90, the “Barnyardgrass plant response rating (0 to 100 scale)” value [5, 29] was 100 and the “Ragweed plant response rating (0-100)” value [6, 28] was 50. For the same compound, the “Ragweed plant response rating (0 to 100 scale)” value [6, 29] was 60, the “Blackgrass plant response rating (0-100)” value [7, 28] was 50 and the “Blackgrass plant response rating (0 to 100 scale)” value [7, 29] was 100. For the same compound, the “Corn plant response rating (0-100)” value (corn (Zea mays) [8]; [28]) was 100, the “Corn plant response rating (0 to 100 scale)” value (corn (Zea mays) [8]; [29]) was 100 and the “Amaranth, Palmer plant response rating (0-100)” value [9, 28] was 80. For the same compound, the “Amaranth, Palmer / Pigweed, Palmer plant response rating (0 to 100 scale)” value [9, 29] was 90, the “Soybean plant response rating (0-100)” value (soybean (Glycine max) [10]; [28]) was 70 and the “Soybean plant response rating (0 to 100 scale)” value (soybean (Glycine max) [10]; [29]) was 70. The “Ryegrass, Italian plant response rating (0-100)” value [11, 28] was 90, the “Ryegrass, Italian plant response rating (0 to 100 scale)” value [11, 29] was 90 and the “Galium plant response rating (0-100)” value [12, 28] was 80. The “Galium plant response rating (0 to 100 scale)” value [12, 29] was 80, the “Wheat plant response rating (0-100)” value [13, 28] was 80 and the “Wheat plant response rating (0 to 100 scale)” value [13, 29] was 90. For the same compound, the “Kochia plant response rating (0-100)” value (kochia (Bassia scoparia) [14]; [28]) was 80, the “Kochia plant response rating (0 to 100 scale)” value (kochia (Bassia scoparia) [14]; [29]) was 80 and the “Foxtail, Green plant response rating (0-100)” value [15, 28] was 20. For the same compound, the “Foxtail, Green plant response rating (0 to 100 scale)” value [15, 29] was 80, the “Horseweed plant response rating (0-100)” value [16, 28] was 70 and the “Horseweed plant response rating (0 to 100 scale)” value [16, 29] was 80. For the same compound, the “Oat, Wild plant response rating (0-100)” value ([17]; 31 g ai/ha) was 60, the “Oat, Wild plant response rating (0 to 100 scale)” value ([17]; 125 g ai/ha) was 90 and the “Barnyardgrass plant response rating (0-100)” value ([18]; 31 g ai/ha) was 20. For the same compound, the “Barnyardgrass plant response rating (0 to 100 scale)” value ([18]; 125 g ai/ha) was 100, the “Ragweed plant response rating (0-100)” value ([19]; 31 g ai/ha) was 0 and the “Ragweed plant response rating (0 to 100 scale)” value ([19]; 125 g ai/ha) was 0. The “Blackgrass plant response rating (0-100)” value ([20]; 31 g ai/ha) was 20, the “Blackgrass plant response rating (0 to 100 scale)” value ([20]; 125 g ai/ha) was 90 and the “Corn plant response rating (0-100)” value (corn (Zea mays) [21]; 31 g ai/ha) was 20. For the same compound, the “Corn plant response rating (0 to 100 scale)” value (corn (Zea mays) [21]; 125 g ai/ha) was 40, the “Amaranth, Palmer plant response rating (0-100)” value ([22]; 31 g ai/ha) was 20 and the “Amaranth, Palmer plant response rating (0 to 100 scale)” value ([22]; 125 g ai/ha) was 70. For the same compound, the “Soybean plant response rating (0-100)” value (soybean (Glycine max) [23]; 31 g ai/ha) was 40, the “Soybean plant response rating (0 to 100 scale)” value (soybean (Glycine max) [23]; 125 g ai/ha) was 80 and the “Ryegrass, Italian plant response rating (0-100)” value ([24]; 31 g ai/ha) was 80. For the same compound, the “Ryegrass, Italian plant response rating (0 to 100 scale)” value ([24]; 125 g ai/ha) was 90, the “Wheat plant response rating (0-100)” value ([25]; 31 g ai/ha) was 90 and the “Wheat plant response rating (0 to 100 scale)” value ([25]; 125 g ai/ha) was 100. For the same compound, the “Kochia plant response rating (0-100)” value (kochia (Bassia scoparia) [26]; 31 g ai/ha) was 0, the “Kochia plant response rating (0 to 100 scale)” value (kochia (Bassia scoparia) [26]; 125 g ai/ha) was 90 and the “Foxtail, Green plant response rating (0-100)” value ([27]; 31 g ai/ha) was 0. The “Foxtail, Green plant response rating (0 to 100 scale)” value ([27]; 125 g ai/ha) was 90.
